Results reported in PubChem BioAssay (NCI).
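Compound exposure: 48 hours, 5 concentrations, 96-well plates. Here, GI50 denotes the concentration required for 50% inhibition of growth. TGI: total growth inhibition.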

What was measured:
Assay in all cases: NCI tumour cell line growth inhibition, 48 h
BT-549 breast = system: BT-549 breast
COLO 205 colon = system: COLO 205 colon
EKVX NSCLC = system: EKVX NSCLC
DLD-1 colon = system: DLD-1 colon
HT29 colon = system: HT29 colon
LOX IMVI melanoma = system: LOX IMVI melanoma
NCI-H226 lung = system: NCI-H226 lung
NCI-H522 lung = system: NCI-H522 lung
SNB-19 CNS = system: SNB-19 CNS
T-47D breast = system: T-47D breast

Compound: COC1=CC(c2ccc[nH]2)=N/C1=C\c1[nH]c(C)c(CC(=O)NCc2ccccc2)c1C
- GI50 (BT-549 breast): 1410 nM
- TGI (BT-549 breast): 3.06 µM
- GI50 (COLO 205 colon): 1.38 µM
- TGI (COLO 205 colon): 2.98 µM
- GI50 (EKVX NSCLC): 1.06 µM
- TGI (EKVX NSCLC): 2.47 µM

Compound: CCOC(=O)NC(=O)c1cn(CCN(CCO)C(=O)NCCCCCCNC(=O)N(CCO)CCn2cc(C(=O)NC(=O)OCC)c(=O)[nH]c2=O)c(=O)[nH]c1=O
- TGI (COLO 205 colon): > 100 µM
- TGI (DLD-1 colon): > 100 µM
- TGI (EKVX NSCLC): > 100 µM
- TGI (HT29 colon): > 100 µM
- TGI (LOX IMVI melanoma): > 100 µM
- TGI (NCI-H226 lung): > 100 µM
- TGI (NCI-H522 lung): > 100 µM
- TGI (SNB-19 CNS): > 100 µM

Compound: N/C(=C\c1ccc(/C=C(\NC(=O)c2ccccc2)c2nc3c([nH]2)C(=O)c2ccccc2C3=O)cc1)c1nc2c([nH]1)C(=O)c1ccccc1C2=O
- TGI (COLO 205 colon): 29.9 µM
- TGI (DLD-1 colon): 33 µM
- TGI (EKVX NSCLC): 55.7 µM
- TGI (HT29 colon): 32.4 µM
- TGI (LOX IMVI melanoma): 47.1 µM
- TGI (NCI-H226 lung): 27 µM
- TGI (NCI-H522 lung): 29.8 µM
- TGI (SNB-19 CNS): 28.4 µM

Compound: COc1nc2ccc(Cl)c(C(O)c3ccccc3)c2nc1OC (configuration not stated)
- TGI (BT-549 breast): 80.7 µM
- TGI (COLO 205 colon): 32.5 µM
- TGI (EKVX NSCLC): > 100 µM
- TGI (HT29 colon): > 100 µM
- TGI (LOX IMVI melanoma): 36.5 µM
- TGI (NCI-H226 lung): 54.7 µM
- TGI (NCI-H522 lung): 37.8 µM
- TGI (SNB-19 CNS): > 100 µM
- TGI (T-47D breast): 99.4 µM

Compound: COC(Cc1cc(C(O)(c2ccc(C(C)(C)C)cc2)c2cc(CC(OC)(c3cc(C(OC)(c4ccc(C(C)(C)C)cc4)c4ccc(C(C)(C)C)cc4)c(C)cc3C)c3cc(C(OC)(c4ccc(C(C)(C)C)cc4)c4ccc(C(C)(C)C)cc4)c(C)cc3C)c(C)cc2C)c(C)cc1C)(c1cc(C(OC)(c2ccc(C(C)(C)C)cc2)c2ccc(C(C)(C)C)cc2)c(C)cc1C)c1cc(C(OC)(c2ccc(C(C)(C)C)cc2)c2ccc(C(C)(C)C)cc2)c(C)cc1C
- TGI (BT-549 breast): > 75 µM
- TGI (COLO 205 colon): > 75 µM
- TGI (EKVX NSCLC): > 75 µM
- TGI (HT29 colon): > 75 µM
- TGI (LOX IMVI melanoma): > 75 µM
- TGI (NCI-H226 lung): > 75 µM
- TGI (SNB-19 CNS): > 75 µM
- TGI (T-47D breast): > 75 µM

Compound: COc1cc(-c2n/c(=C\c3c(O)[nH]c4ccccc34)cc3c2=Nc2ccccc2-3)ccc1F
- GI50 (BT-549 breast): 4070 nM
- TGI (BT-549 breast): 18.1 µM
- GI50 (COLO 205 colon): 10.9 µM
- TGI (COLO 205 colon): > 100 µM
- GI50 (EKVX NSCLC): 20.9 µM
- TGI (EKVX NSCLC): > 100 µM
- GI50 (HT29 colon): 4.02 µM
- TGI (HT29 colon): 16.1 µM
- GI50 (LOX IMVI melanoma): 9.09 µM
- TGI (LOX IMVI melanoma): 59.7 µM
- GI50 (NCI-H226 lung): 19.9 µM
- TGI (NCI-H226 lung): > 100 µM
- GI50 (NCI-H522 lung): 8.79 µM
- TGI (NCI-H522 lung): 51.6 µM
- GI50 (SNB-19 CNS): 4.94 µM
- TGI (SNB-19 CNS): 24.3 µM
- GI50 (T-47D breast): 6.87 µM
- TGI (T-47D breast): 82 µM

Compound: CCCC[n+]1ccn(-c2nc3ccccc3n2C)c1
- TGI (DLD-1 colon): > 100 µM
- TGI (EKVX NSCLC): > 100 µM
- TGI (HT29 colon): > 100 µM
- TGI (LOX IMVI melanoma): > 100 µM
- TGI (NCI-H226 lung): > 100 µM
- TGI (NCI-H522 lung): > 100 µM
- TGI (SNB-19 CNS): > 100 µM

Compound: CN(CCO)CCC1COc2ccccc2O1 (configuration not stated)
- TGI (COLO 205 colon): > 10 µM
- TGI (EKVX NSCLC): > 10 µM
- TGI (HT29 colon): > 10 µM
- TGI (LOX IMVI melanoma): > 10 µM
- TGI (NCI-H226 lung): > 10 µM
- TGI (NCI-H522 lung): > 10 µM
- TGI (SNB-19 CNS): > 10 µM
- TGI (T-47D breast): > 10 µM
